According to ChEMBL document CHEMBL3885861, “Open TG-GATES”:

Species: Rattus norvegicus
Experiment: Open TG-GATES - Regimen: Single
Format: toxicity, organism-based, Sprague-Dawley
Parameters: regimen Single, gender Male, age 6 weeks
Conditions: in vivo, po, 60 mg/kg, route gavage, dose level Middle; for APTT / Bas / Eos / Fbg / Hb / Ht / Lym / MCH / MCHC / MCV / Mono / Neu / PT / Plat / RBC / Ret / WBC: tissue Blood; for KIDNEY_L / KIDNEY_R / KIDNEY_TOTAL: tissue Kidney; for LIVER: tissue Liver; for A/G / ALP / ALT / AST / BUN / CRE / Ca / Cl / DBIL / GLC / IP / K / LDH / Na / PL / RALB / TBIL / TC / TG / TP / gamma-GTP: tissue Plasma

## CCc1oc2ccccc2c1C(=O)c1cc(Br)c(O)c(Br)c1 [BENZBROMARONE]
9 h
  TERMINAL_BW: 210.8 g
  APTT: 16.3 s
  Bas: 0%
  Eos: 1%
  Fbg: 233 mg/dL
  Hb: 13.6 g/dL
  Ht: 40.8%
  Lym: 77.6%
  MCH: 21.9 pg
  MCHC: 33.4%
  MCV: 65.6 fL
  Mono: 5.4%
  Neu: 16.6%
  PT: 12.2 s
  Plat: 109.2 x10_4/uL
  RBC: 622.6 x10_4/ul
  Ret: 7.4%
  WBC: 90.4 x10_2/uL
  KIDNEY_L: 0.9 g
  KIDNEY_R: 1 g
  KIDNEY_TOTAL: 1.9 g
  LIVER: 9.1 g
  A/G: 2.1
  ALP: 731.6 IU/L
  ALT: 29 IU/L
  AST: 59.8 IU/L
  BUN: 10.4 mg/dL
  CRE: 0.6 mg/dL
  Ca: 10.1 mg/dL
  Cl: 104.4 meq/L
  DBIL: 0.004 mg/dL
  GLC: 187.8 mg/dL
  IP: 11.1 mg/dL
  K: 4.9 meq/L
  LDH: 85 IU/L
  Na: 138 meq/L
  PL: 112.4 mg/dL
  RALB: 3.9 g/dL
  TBIL: 0.3 mg/dL
  TC: 67.4 mg/dL
  TG: 37.6 mg/dL
  TP: 5.7 g/dL
  gamma-GTP: 1.2 IU/L
24 h
  TERMINAL_BW: 222.2 g
  APTT: 16.1 s
  Bas: 0%
  Eos: 1.2%
  Fbg: 223.2 mg/dL
  Hb: 13.8 g/dL
  Ht: 41.1%
  Lym: 77.2%
  MCH: 22.4 pg
  MCHC: 33.7%
  MCV: 66.5 fL
  Mono: 9%
  Neu: 12.6%
  PT: 12.3 s
  Plat: 105.9 x10_4/uL
  RBC: 617.8 x10_4/ul
  Ret: 7.5%
  WBC: 80 x10_2/uL
  KIDNEY_L: 1 g
  KIDNEY_R: 1 g
  KIDNEY_TOTAL: 2.1 g
  LIVER: 11.9 g
  A/G: 2.2
  ALP: 861.2 IU/L
  ALT: 31.6 IU/L
  AST: 63.4 IU/L
  BUN: 18.6 mg/dL
  CRE: 0.6 mg/dL
  Ca: 10.3 mg/dL
  Cl: 104.8 meq/L
  DBIL: 0.016 mg/dL
  GLC: 183.2 mg/dL
  IP: 7.9 mg/dL
  K: 5 meq/L
  LDH: 111.2 IU/L
  Na: 138.2 meq/L
  PL: 130.6 mg/dL
  RALB: 4.1 g/dL
  TBIL: 0.4 mg/dL
  TC: 68.2 mg/dL
  TG: 111 mg/dL
  TP: 5.9 g/dL
  gamma-GTP: 1.4 IU/L
